{"source": "patent US20110287934A1", "about": "“HERBICIDAL COMPOSITION FOR TOLERANT OR RESISTANT RICE CROPS” (priority 2010, published 2011)", "format_in_all_cases": "in vivo", "key": {"rice (GA-tolerant)": {"test_system": "rice (GA-tolerant)", "experiment": "Greenhouse trial, crop plant compatibility in rice (GA-tolerant)", "experimental": "(§1) The trials were carried out under greenhouse conditions (test pots, diameter 8 cm, spray application using 300 l of water/hectare, 2 repetitions, 6 to 8 plants per pot, permanently flooded).\n(§2) Scoring was by visual comparison of the treated with the untreated controls (0-100% scale, 13-15 days after the application) (see details in the respective tables)."}, "Leptochloa chinensis": {"test_system": "Leptochloa chinensis", "experiment": "Greenhouse trial, efficacy with respect to Leptochloa chinensis", "conditions": "post-emergence", "experimental": "as §1\n(§3) Application was by post-emergence treatment, the species of the harmful plants and their stage of growth at the time of treatment are indicated in the individual results tables. The application rates of the herbicidally active compounds used on their own or in combinations are likewise listed in the individual results tables.\nas §2\n(§4) 4.2 Abbreviations Used in Tables 4 to 6 • application rate g/ai=application rate in grams of active compound per hectare • ai=active ingredient (of an active compound content of 100%) • GA=glufosinate-ammonium • GA-tolerant=rice which is tolerant to GA (GMO: LL-rice) • E^C=expected value according to Colby, (E^C=A+B−A×B/100) • =for ternary combinations: (A+B)+C−(A+B)×C/100 • E^A=expected value according to the addition method (E^A=A+B) • Δ=difference (%) between observed value—%—vs. expected value (%) (observed value minus expected value) examination: observed values for (A), (B) and (A)+(B) in scoring: observed value (%) greater >than E^C/E^A:->synergism (+Δ) • observed value (%) equal to =E^C/E^A->additive effect (+−0Δ) • observed value (%) smaller <than E^A/E^C->antagonism (−Δ)"}, "Amaranthus retroflexus": {"test_system": "Amaranthus retroflexus", "experiment": "Greenhouse trial, efficacy with respect to Amaranthus retroflexus", "conditions": "post-emergence, 2-3-leaf stage, scoring 13 days after treatment", "experimental": "as §1, §3, §2, §4"}, "Cyperus esculentus": {"test_system": "Cyperus esculentus", "experiment": "Greenhouse trial, efficacy with respect to Cyperus esculentus", "conditions": "post-emergence, 1-3-leaf stage, scoring 15 days after application", "experimental": "as §1, §3, §2, §4"}, "[1]": {"conditions": "100 g of ai/ha, post-emergence, 1-3-leaf stage, scoring 15 days after application (Table 5)"}, "[2]": {"conditions": "Dinebra chinensis, 360 h, read-out: Herbicidal activity % Leptochloa chinensis"}, "[3]": {"conditions": "50 g of ai/ha, post-emergence, 1-3-leaf stage, scoring 15 days after application (Table 5)"}}, "data": [{"molecule": "CP(=O)(O)CCC(N)C(=O)O", "note": "(centres unmarked) [A1.1, glufosinate-ammonium]", "values": [{"measurement": "Damage to crop plants (%) rice (GA-tolerant) (≦15-20% acceptable)", "setting": "rice (GA-tolerant); [1]", "result": 10, "unit": "%"}, {"measurement": "Damage to crop plants (%) rice (GA-tolerant) (≦15-20% acceptable)", "setting": "rice (GA-tolerant); 100 g of ai/ha, post-emergence, 1-3-leaf stage, scoring 15 days after application (Table 6)", "result": 10, "unit": "%"}, {"measurement": "Damage to crop plants (%) rice (GA-tolerant) (≦15-20% acceptable)", "setting": "rice (GA-tolerant); 100 g of ai/ha, post-emergence, 2-3-leaf stage, scoring 13 days after treatment", "result": 10, "unit": "%"}, {"measurement": "inhibition at 100 g/ha", "setting": "Leptochloa chinensis; [2]", "result": 10, "unit": "%"}, {"measurement": "Herbicidal efficacy % Amaranthus retroflexus", "setting": "Amaranthus retroflexus; 100 g of ai/ha", "result": 55, "unit": "%"}, {"measurement": "Herbicidal efficacy % Cyperus esculentus", "setting": "Cyperus esculentus; 100 g of ai/ha", "result": 25, "unit": "%"}]}, {"molecule": "COC(=O)c1nc(-c2ccc(Cl)c(OC)c2F)cc(N)c1Cl", "note": "[B1.1, methyl 4-amino-3-chloro-6-(4-chloro-2-fluoro-3-methoxyphenyl)pyridine-2-carboxylate]", "values": [{"measurement": "Damage to crop plants (%) rice (GA-tolerant) (≦15-20% acceptable)", "setting": "rice (GA-tolerant); in vivo", "result": 0, "unit": "%"}, {"measurement": "inhibition at 20 g/ha", "setting": "Leptochloa chinensis; [2]", "result": 45, "unit": "%"}, {"measurement": "Herbicidal efficacy % Amaranthus retroflexus", "setting": "Amaranthus retroflexus; 20 g of ai/ha", "result": 90, "unit": "%"}, {"measurement": "Herbicidal efficacy % Cyperus esculentus", "setting": "Cyperus esculentus; 20 g of ai/ha", "result": 60, "unit": "%"}]}, {"molecule": "CCOC(=O)[C@@H](C)Oc1ccc(Oc2nc3ccc(Cl)cc3o2)cc1", "note": "[C29, fenoxaprop-P-ethyl]", "values": [{"measurement": "Damage to crop plants (%) rice (GA-tolerant) (≦15-20% acceptable)", "setting": "rice (GA-tolerant); 10 g of ai/ha, post-emergence, 2-3-leaf stage, scoring 13 days after treatment", "result": 10, "unit": "%"}, {"measurement": "Herbicidal efficacy % Amaranthus retroflexus", "setting": "Amaranthus retroflexus; 10 g of ai/ha", "result": 10, "unit": "%"}]}, {"molecule": "oxadiargyl [C49]", "values": [{"measurement": "Herbicidal activity % Leptochloa chinensis", "setting": "Leptochloa chinensis; 25 g of ai/ha, 1-3-leaf stage, scoring 15 days after application", "result": 70, "unit": "%"}]}, {"molecule": "CC(C)Oc1cc(-n2nc(C(C)(C)C)oc2=O)c(Cl)cc1Cl", "note": "[C50, oxadiazon]", "values": [{"measurement": "Damage to crop plants (%) rice (GA-tolerant) (≦15-20% acceptable)", "setting": "rice (GA-tolerant); in vivo", "result": 0, "unit": "%"}, {"measurement": "Herbicidal efficacy % Cyperus esculentus", "setting": "Cyperus esculentus; 3 g of ai/ha", "result": 10, "unit": "%"}]}, {"molecule": "CS(=O)(=O)c1ccc(C(=O)C2C(=O)CCCC2=O)c(Cl)c1COCC1CCCO1", "note": "(centres unmarked) [C64, tefuryltrione]", "values": [{"measurement": "Damage to crop plants (%) rice (GA-tolerant) (≦15-20% acceptable)", "setting": "rice (GA-tolerant); [3]", "result": 0, "unit": "%"}, {"measurement": "Herbicidal efficacy % Cyperus esculentus", "setting": "Cyperus esculentus; 50 g of ai/ha", "result": 30, "unit": "%"}]}, {"molecule": "CCOC(=O)c1cnn(C)c1S(=O)(=O)NC(=O)Nc1nc(OC)cc(OC)n1", "note": "[C59, pyrazosulfuron-ethyl]", "values": [{"measurement": "Damage to crop plants (%) rice (GA-tolerant) (≦15-20% acceptable)", "setting": "rice (GA-tolerant); 50 g of ai/ha, post-emergence, 2-3-leaf stage, scoring 13 days after treatment", "result": 10, "unit": "%"}, {"measurement": "Herbicidal efficacy % Amaranthus retroflexus", "setting": "Amaranthus retroflexus; 50 g of ai/ha", "result": 60, "unit": "%"}]}, {"molecule": "CCN(C(=O)n1nnn(-c2ccccc2Cl)c1=O)C1CCCCC1", "note": "[C30, fentrazamide]", "values": [{"measurement": "Herbicidal efficacy % Amaranthus retroflexus", "setting": "Amaranthus retroflexus; 75 g of ai/ha", "result": 30, "unit": "%"}]}, {"molecule": "CCC(=O)Nc1ccc(Cl)c(Cl)c1", "note": "[C55, propanil]", "values": [{"measurement": "Damage to crop plants (%) rice (GA-tolerant) (≦15-20% acceptable)", "setting": "rice (GA-tolerant); 500 g of ai/ha, post-emergence, 1-3-leaf stage, scoring 15 days after application (Table 5)", "result": 0, "unit": "%"}, {"measurement": "Herbicidal efficacy % Cyperus esculentus", "setting": "Cyperus esculentus; 500 g of ai/ha", "result": 10, "unit": "%"}]}, {"molecule": "CCC(CC)Nc1c([N+](=O)[O-])cc(C)c(C)c1[N+](=O)[O-]", "note": "[C53, pendimethalin]", "values": [{"measurement": "Damage to crop plants (%) rice (GA-tolerant) (≦15-20% acceptable)", "setting": "rice (GA-tolerant); 200 g of ai/ha, post-emergence, 2-3-leaf stage, scoring 13 days after treatment", "result": 10, "unit": "%"}, {"measurement": "Herbicidal efficacy % Amaranthus retroflexus", "setting": "Amaranthus retroflexus; 200 g of ai/ha", "result": 50, "unit": "%"}]}, {"molecule": "CCOc1ccccc1OS(=O)(=O)NC(=O)Nc1nc(OC)cc(OC)n1", "note": "[C24, ethoxysulfuron]", "values": [{"measurement": "Damage to crop plants (%) rice (GA-tolerant) (≦15-20% acceptable)", "setting": "rice (GA-tolerant); in vivo", "result": 0, "unit": "%"}, {"measurement": "Herbicidal efficacy % Amaranthus retroflexus", "setting": "Amaranthus retroflexus; 10 g of ai/ha", "result": 40, "unit": "%"}]}, {"molecule": "COC(=O)c1ccccc1S(=O)(=O)NC(=O)Nc1nc(C)nc(OC)n1", "note": "[C43, metsulfuron-methyl]", "values": [{"measurement": "Damage to crop plants (%) rice (GA-tolerant) (≦15-20% acceptable)", "setting": "rice (GA-tolerant); in vivo", "result": 15, "unit": "%"}, {"measurement": "Herbicidal efficacy % Cyperus esculentus", "setting": "Cyperus esculentus; 3 g of ai/ha", "result": 0, "unit": "%"}]}, {"molecule": "C[C@@H](Oc1ccc(Oc2ccc(C#N)cc2F)cc1)C(=O)O", "note": "[C19, cyhalofop]", "values": [{"measurement": "Damage to crop plants (%) rice (GA-tolerant) (≦15-20% acceptable)", "setting": "rice (GA-tolerant); [3]", "result": 0, "unit": "%"}, {"measurement": "Herbicidal efficacy % Cyperus esculentus", "setting": "Cyperus esculentus; 50 g of ai/ha", "result": 10, "unit": "%"}]}, {"molecule": "COc1nc(OC)nc(C(=O)c2cccc(F)c2N(C)S(=O)(=O)C(F)F)n1", "note": "[C72, AE 196 triafamone]", "values": [{"measurement": "Damage to crop plants (%) rice (GA-tolerant) (≦15-20% acceptable)", "setting": "rice (GA-tolerant); 6 g of ai/ha, post-emergence, 1-3-leaf stage, scoring 15 days after application (Table 5)", "result": 0, "unit": "%"}, {"measurement": "Herbicidal efficacy % Cyperus esculentus", "setting": "Cyperus esculentus; 6 g of ai/ha", "result": 65, "unit": "%"}]}, {"molecule": "Cc1nn(-c2cc(CC(Cl)C(=O)O)c(Cl)cc2F)c(=O)n1C(F)F", "note": "(centres unmarked) [C13, carfentrazone]", "values": [{"measurement": "Damage to crop plants (%) rice (GA-tolerant) (≦15-20% acceptable)", "setting": "rice (GA-tolerant); 4 g of ai/ha, post-emergence, 1-3-leaf stage, scoring 15 days after application (Table 5)", "result": 10, "unit": "%"}, {"measurement": "Herbicidal efficacy % Cyperus esculentus", "setting": "Cyperus esculentus; 4 g of ai/ha", "result": 0, "unit": "%"}]}, {"molecule": "CC1(C)CON(Cc2ccccc2Cl)C1=O", "note": "[C17, clomazone]", "values": [{"measurement": "Damage to crop plants (%) rice (GA-tolerant) (≦15-20% acceptable)", "setting": "rice (GA-tolerant); [1]", "result": 0, "unit": "%"}, {"measurement": "Herbicidal efficacy % Cyperus esculentus", "setting": "Cyperus esculentus; 100 g of ai/ha", "result": 10, "unit": "%"}]}, {"molecule": "O=C(O)COc1ccc(Cl)cc1Cl", "note": "[C20, 2,4-D]", "values": [{"measurement": "Damage to crop plants (%) rice (GA-tolerant) (≦15-20% acceptable)", "setting": "rice (GA-tolerant); [1]", "result": 0, "unit": "%"}, {"measurement": "Herbicidal efficacy % Cyperus esculentus", "setting": "Cyperus esculentus; 100 g of ai/ha", "result": 20, "unit": "%"}]}]}
